According to US12338256B2, “Aza-tetracyclic oxazepine compounds and uses thereof” (Genentech, Inc., priority 2022, dated 2025):

Experiments:
Format in all cases: cell-based
[1] = test system: AsPC-1 (homozygous mutant KRAS G12D human pancreatic cell line); experiment: KRAS 3D-Cell Proliferation Assay, AsPC-1 (Example 503); details: Homo sapiens, ASPC1, 168 h, AsPC-1 3D culture, 7 days, CellTiter-Glo 3D; read-out: Prolif AsPC-1 3D ATP IC50
Method in brief: (§1)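 Cells grown in 3D in ultra-low attachment plates (RPMI-1640 with 10% FBS and 2 mM L-glutamine) received compound dilution series after overnight attachment, at 0.3% DMSO final, for 7 days at 37° C. ATP luminescence (CellTiter-Glo 3D) normalized to DMSO and 1 μM staurosporine; IC50 from 4-parameter Hill fit.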

[2] = test system: HPAC (homozygous mutant KRAS G12D human pancreatic cell line); experiment: KRAS 3D-Cell Proliferation Assay, HPAC (Example 503); details: Homo sapiens, HPAC, 168 h, HPAC 3D culture, 7 days, CellTiter-Glo 3D; read-out: Prolif HPAC 3D ATP IC50
Method in brief: as §1

[3] = test system: PC-9 (KRAS wild type human lung adenocarcinoma cell line); experiment: KRAS 3D-Cell Proliferation Assay, PC-9 (Example 503); details: 168 h, PC-9 3D culture, 7 days, CellTiter-Glo 3D, read-out: Prolif PC9 3D ATP IC50
Method in brief: as §1

[4] = test system: H1975 (KRAS wild type human lung adenocarcinoma cell line); experiment: KRAS 3D-Cell Proliferation Assay, H1975 (Example 503); details: Homo sapiens, NCI-H1975, 168 h, H1975 3D culture, 7 days, CellTiter-Glo 3D; read-out: Prolif H1975 3D ATP IC50
Method in brief: as §1

| SMILES | IC50 [1] | IC50 [2] | IC50 [3] | IC50 [4] |
| --- | --- | --- | --- | --- |
| C[C@@H]1Oc2nc(-c3cc(O)cc4ccccc34)c(F)c3nc(OC[C@]45CCN4CC(F)(F)C5)nc(c23)N2C[C@H]3CC[C@H](N3)[C@@H]12 [Compound 25, 4-((5S,5aS,6S,9R)-12-(((R)-3,3-difluoro-1-azabicyclo[3.2.0]heptan-5-yl)methoxy)-1-fluoro-5-methyl-5a,6,7,8,9,10-hexahydro-5H-4-oxa-3,10a,11,13,14-pentaaza-6,9-methanonaphtho[1,8-ab]heptalen-2-yl)naphthalen-2-ol] | 464 nM | 78.8 nM | 11000 nM | 10700 nM |
| Cc1c(F)c(N)cc(-c2nc3c4c(nc(OC[C@@H]5C[C@@H](F)CN5C)nc4c2F)N2C[C@H]4CC[C@H](N4)[C@H]2[C@H](C)O3)c1C(F)(F)F [Compound 26, 2-Fluoro-5-((5S,5aS,6S,9R)-1-fluoro-12-(((2S,4R)-4-fluoro-1-methylpyrrolidin-2-yl)methoxy)-5-methyl-5a,6,7,8,9,10-hexahydro-5H-4-oxa-3,10a,11,13,14-pentaaza-6,9-methanonaphtho[1,8-ab]heptalen-2-yl)-3-methyl-4-(trifluoromethyl)aniline] | 5.19 nM | 3.24 nM | 7640 nM | 1540 nM |
| C[C@@H]1Oc2nc(-c3cccc4cccc(Cl)c34)c(F)c3nc(OC[C@@]45CCCN4CC4(CC4(F)F)C5)nc(c23)N2C[C@H]3CC[C@H](N3)[C@@H]12 (stereo partly drawn) [Compound 27, (5S,5aS,6S,9R)-2-(8-chloronaphthalen-1-yl)-12-(((7a′S)-2,2-difluorodihydro-1′H,3′H-spiro[cyclopropane-1,2′-pyrrolizin]-7a′(5′H)-yl)methoxy)-1-fluoro-5-methyl-5a,6,7,8,9,10-hexahydro-5H-4-oxa-3,10a,11,13,14-pentaaza-6,9-methanonaphtho[1,8-ab]heptalene] | 32.1 nM | 68.1 nM | 2780 nM | 2390 nM |
| CCc1cccc2cc(O)cc(-c3nc4c5c(nc(OCC67COC(C6)C7)nc5c3F)N3C[C@H]5CC[C@H](N5)[C@H]3[C@H](C)O4)c12 [Compound 28, 4-((5S,5aS,6S,9R)-12-((2-oxabicyclo[2.1.1]hexan-4-yl)methoxy)-1-fluoro-5-methyl-5a,6,7,8,9,10-hexahydro-5H-4-oxa-3,10a,11,13,14-pentaaza-6,9-methanonaphtho[1,8-ab]heptalen-2-yl)-5-ethylnaphthalen-2-ol] | 363 nM | 257 nM | 11000 nM | 20000 nM |
| Cc1c(F)c(N)cc(-c2nc3c4c(nc(OCC56CCN5C[C@H](F)C6)nc4c2F)N2C[C@H]4CC[C@H](N4)[C@H]2[C@H](C)O3)c1C(F)(F)F (stereo partly drawn) [Compound 29, 2-fluoro-5-((5S,5aS,6S,9R)-1-fluoro-12-(((3R)-3-fluoro-1-azabicyclo[3.2.0]heptan-5-yl)methoxy)-5-methyl-5a,6,7,8,9,10-hexahydro-5H-4-oxa-3,10a,11,13,14-pentaaza-6,9-methanonaphtho[1,8-ab]heptalen-2-yl)-3-methyl-4-(trifluoromethyl)aniline] | 4.98 nM | 7.76 nM | 8190 nM | 6110 nM |
| C[C@@H]1Oc2nc(-c3cncc4ccccc34)c(F)c3nc(OC[C@@]45CCCN4CC4(CC4(F)F)C5)nc(c23)N2C[C@H]3CC[C@H](N3)[C@@H]12 (stereo partly drawn) [Compound 30, (5S,5aS,6S,9R)-12-(((7a′S)-2,2-difluorodihydro-1′H,3′H-spiro[cyclopropane-1,2′-pyrrolizin]-7a′(5′H)-yl)methoxy)-1-fluoro-2-(isoquinolin-4-yl)-5-methyl-5a,6,7,8,9,10-hexahydro-5H-4-oxa-3,10a,11,13,14-pentaaza-6,9-methanonaphtho[1,8-ab]heptalene] | 166 nM | 154 nM | 3810 nM | 2890 nM |
